Assay results taken from patent US9708286B2, “Ingenol-3-acylates III and ingenol-3-carbamates” (LEO Laboratories Limited, priority 2010, dated 2017).
Read-outs that look alike come from different tables or passages of the source.

Key:
Type in all cases: cell-based
[1] = tested on: PMN's (polymorphonuclear leukocytes); test: Neutrophil oxidative burst; settings: Leukocyte, 40 min, normalized to 5×10^−7 M PEP0005
Procedure, shortened: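 Human buffy-coat neutrophils (2.5×10^5/well) in HBSS with 0.1% BSA, 5 mM glucose treated with compound premixed with 10 μM hydroethidine for 40 min at RT; fluorescence read at 485/579 nm. Normalized to 5×10^−7 M PEP0005; Rel EC50 is midway between fitted top and bottom, Abs EC50 gives 50% of PEP0005 maximum.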

[2] = tested on: Primary human epidermal keratinocytes, HeKa; test: HeKa cytokine release (IL-8); settings: Homo sapiens, read-out: HeKa cytokine release (IL-8) Rel EC50 range
Procedure, shortened: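 Seeded cells exposed to compound dilutions for 6 h at 37° C; IL-8 in supernatant quantified by MSD sandwich electrochemiluminescence immunoassay. Effects normalized to positive control (1.5×10^−7 M PEP0005), four-parameter sigmoidal fit; Rel EC50 is concentration midway between fitted top and bottom.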

HeLa cells = test: Necrosis assay; settings: Homo sapiens, 0.5 h, read-out: HeLa necrosis EC50 range
Procedure, shortened: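 HeLa cells treated with compound at 10 μM to 400 μM (final) for 30 min at 37° C., viability then measured by PrestoBlue fluorescence (ex 535/em 630 nm). Normalized to 1% DMSO and 400 μM ingenol mebutate controls; AbsEC50 from four-parameter sigmoidal fit.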

[3] = read-out: Neutrophil oxidative burst Rel EC50 range, PMN from buffy coats, 40 min at RT, hydroethidine fluorescence

| Structure (SMILES) | EC50 [1, 3] | EC50 ([2]; HEKa, 6 h) | EC50 (HeLa cells; HeLa) | EC50 ([1]; PMN from buffy coats, 40 min at RT, hydroethidine fluorescence, read-out: Neutrophil oxidative burst Rel EC50 range) | EC50 ([2]; HeKa cells, 6 h at 37° C., IL-8 by MSD assay, normalized to 1.5×10^−7 M PEP0005) | EC50 (HeLa cells; HeLa cells, 30 min at 37° C., PrestoBlue, AbsEC50, normalized to 400 μM ingenol mebutate) |
| --- | --- | --- | --- | --- | --- | --- |
| CC1=C[C@]23C(=O)[C@@H](C=C(CO)[C@@H](O)[C@]2(O)[C@H]1OC(=O)c1ncncc1Br)[C@H]1[C@@H](C[C@H]3C)C1(C)C [Compound 523, Ingenol 3-(5-bromopyrimidine-4-carboxylate)] | 0.02 to 0.1 µM | > 0.1 µM | > 350 µM |  |  |  |
| CC1=C[C@]23C(=O)[C@@H](C=C(CO)[C@@H](O)[C@]2(O)[C@H]1OC(=O)c1c(C)noc1C(F)(F)F)[C@H]1[C@@H](C[C@H]3C)C1(C)C [Compound 575, Ingenol 3-(3-methyl-5-(trifluoromethyl)isoxazole-4-carboxylate)] | < 0.02 µM | < 0.02 µM | < 150 µM |  |  |  |
| CC1=C[C@]23C(=O)[C@@H](C=C(CO)[C@@H](O)[C@]2(O)[C@H]1OC(=O)c1c(-c2ccccc2)noc1C)[C@H]1[C@@H](C[C@H]3C)C1(C)C [Compound 502, Ingenol 3-(5-methyl-3-phenyl-isoxazole-4-carboxylate)] | < 0.02 µM | < 0.02 µM | < 150 µM |  |  |  |
| CC1=C[C@]23C(=O)[C@@H](C=C(CO)[C@@H](O)[C@]2(O)[C@H]1OC(=O)c1c(-c2c(F)cccc2Cl)noc1C)[C@H]1[C@@H](C[C@H]3C)C1(C)C [Compound 501, Ingenol 3-(5-methyl-3-(2-chloro-6-fluoro-phenyl)-isoxazole-4-carboxylate)] | 0.02 to 0.1 µM | < 0.02 µM | < 150 µM |  |  |  |
| CC1=C[C@]23C(=O)[C@@H](C=C(CO)[C@@H](O)[C@]2(O)[C@H]1OC(=O)c1sccc1-c1ccccc1)[C@H]1[C@@H](C[C@H]3C)C1(C)C [Compound 510, Ingenol 3-(3-phenylthiophene-2-carboxylate)] | 0.02 to 0.1 µM | < 0.02 µM | < 150 µM |  |  |  |
| CC1=C[C@]23C(=O)[C@@H](C=C(CO)[C@@H](O)[C@]2(O)[C@H]1OC(=O)c1c(C)nn(C(C)C)c1C)[C@H]1[C@@H](C[C@H]3C)C1(C)C [Compound 546, Ingenol 3-(1-isopropyl-3,5-dimethyl-pyrazole-4-carboxylate)] | < 0.02 µM | < 0.02 µM | 150 to 350 µM |  |  |  |
| CC1=C[C@]23C(=O)[C@@H](C=C(CO)[C@@H](O)[C@]2(O)[C@H]1OC(=O)c1sccc1C)[C@H]1[C@@H](C[C@H]3C)C1(C)C [Compound 537, Ingenol 3-(3-methylthiophene-2-carboxylate)] | < 0.02 µM | < 0.02 µM | 150 to 350 µM |  |  |  |
| CC1=C[C@]23C(=O)[C@@H](C=C(CO)[C@@H](O)[C@]2(O)[C@H]1OC(=O)N(C)C1CCCc2ccccc21)[C@H]1[C@@H](C[C@H]3C)C1(C)C (stereo partly drawn) [Compound 714, Ingenol 3-(N-Methyl-N-tetralin-1-yl-carbamate)] | > 0.1 µM | < 0.02 µM | < 150 µM |  |  |  |
| CC1=C[C@]23C(=O)[C@@H](C=C(CO)[C@@H](O)[C@]2(O)[C@H]1OC(=O)N1c2ccccc2OCC1C)[C@H]1[C@@H](C[C@H]3C)C1(C)C (stereo partly drawn) [Compound 739, Ingenol 3-(3-methyl-2,3-dihydro-1,4-benzoxazine-4-carboxylate)] | < 0.02 µM | < 0.02 µM | < 150 µM |  |  |  |
| CC1=C[C@]23C(=O)[C@@H](C=C(CO)[C@@H](O)[C@]2(O)[C@H]1OC(=O)c1cc(C)c[nH]1)[C@H]1[C@@H](C[C@H]3C)C1(C)C [Compound 582, Ingenol 3-(4-methyl-1H-pyrrole-2-carboxylate)] | < 0.02 µM | < 0.02 µM | 150 to 350 µM |  |  |  |
| CCN(CC)C(=O)O[C@H]1C(C)=C[C@]23C(=O)[C@@H](C=C(CO)[C@@H](O)[C@]12O)[C@H]1[C@@H](C[C@H]3C)C1(C)C [Compound 706, Ingenol 3-(N,N-diethyl-carbamate)] | < 0.02 µM | 0.02 to 0.1 µM | > 350 µM |  |  |  |
| COCCn1cc(C)c(C(=O)O[C@H]2C(C)=C[C@]34C(=O)[C@@H](C=C(CO)[C@@H](O)[C@]23O)[C@H]2[C@@H](C[C@H]4C)C2(C)C)c1C [Compound 589, Ingenol 3-(1-(2-methoxyethyl)-2,4-dimethyl-pyrrole-3-carboxylate)] | 0.02 to 0.1 µM | < 0.02 µM | < 150 µM |  |  |  |
| CC1=C[C@]23C(=O)[C@@H](C=C(CO)[C@@H](O)[C@]2(O)[C@H]1OC(=O)c1cccc2cc[nH]c12)[C@H]1[C@@H](C[C@H]3C)C1(C)C [Compound 531, Ingenol 3-(1H-indole-7-carboxylate)] | 0.02 to 0.1 µM | < 0.02 µM | < 150 µM |  |  |  |
| CC1=C[C@]23C(=O)[C@@H](C=C(CO)[C@@H](O)[C@]2(O)[C@H]1OC(=O)c1c(C)cn(CC2CC2)c1C)[C@H]1[C@@H](C[C@H]3C)C1(C)C [Compound 588, Ingenol 3-(1-(cyclopropylmethyl)-2,4-dimethyl-pyrrole-3-carboxylate)] | < 0.02 µM | < 0.02 µM | < 150 µM |  |  |  |
| CC1=C[C@]23C(=O)[C@@H](C=C(CO)[C@@H](O)[C@]2(O)[C@H]1OC(=O)c1c(C)c2ccccc2n1C)[C@H]1[C@@H](C[C@H]3C)C1(C)C [Compound 571, Ingenol 3-(1,3-dimethylindole-2-carboxylate)] | < 0.02 µM | < 0.02 µM | < 150 µM |  |  |  |
| CC1=C[C@]23C(=O)[C@@H](C=C(CO)[C@@H](O)[C@]2(O)[C@H]1OC(=O)c1c(Cl)c(C)nn1C)[C@H]1[C@@H](C[C@H]3C)C1(C)C [Compound 540, Ingenol 3-(4-chloro-2,5-dimethyl-pyrazole-3-carboxylate)] | < 0.02 µM | < 0.02 µM | < 150 µM |  |  |  |
| CC1=C[C@]23C(=O)[C@@H](C=C(CO)[C@@H](O)[C@]2(O)[C@H]1OC(=O)N(C)[C@@H](C)c1ccccc1)[C@H]1[C@@H](C[C@H]3C)C1(C)C [Compound 716, Ingenol 3-(N-methyl-N—((S)-1-phenethyl)-carbamate)] | 0.02 to 0.1 µM | < 0.02 µM | < 150 µM |  |  |  |
| CC1=C[C@]23C(=O)[C@@H](C=C(CO)[C@@H](O)[C@]2(O)[C@H]1OC(=O)c1c(C)nn(Cc2ccccc2)c1C)[C@H]1[C@@H](C[C@H]3C)C1(C)C [Compound 560, Ingenol 3-(1-benzyl-3,5-dimethyl-pyrazole-4-carboxylate)] | < 0.02 µM | < 0.02 µM | < 150 µM |  |  |  |
| C/C=C(/C)C(=O)O[C@H]1C(C)=C[C@]23C(=O)[C@@H](C=C(CO)[C@@H](O)[C@]12O)[C@H]1[C@@H](C[C@H]3C)C1(C)C [Ingenol mebutate, Ingenol-3-angelate, reference compound] |  |  |  | < 0.02 µM | < 0.02 µM | 150 to 350 µM |
| CC1=C[C@]23C(=O)[C@@H](C=C(CO)[C@@H](O)[C@]2(O)[C@H]1OC(=O)N1CCNc2ccccc21)[C@H]1[C@@H](C[C@H]3C)C1(C)C [Compound 744, Ingenol 3-(3,4-dihydro-2H-quinoxaline-1-carboxylate)] | 0.02 to 0.1 µM | 0.02 to 0.1 µM | 150 to 350 µM |  |  |  |
| CC1=C[C@]23C(=O)[C@@H](C=C(CO)[C@@H](O)[C@]2(O)[C@H]1OC(=O)c1nc(C)oc1C)[C@H]1[C@@H](C[C@H]3C)C1(C)C [Compound 528, Ingenol 3-(2,5-dimethyloxazole-4-carboxylate)] | 0.02 to 0.1 µM | > 0.1 µM | > 350 µM |  |  |  |
| CCc1onc(C(C)C)c1C(=O)O[C@H]1C(C)=C[C@]23C(=O)[C@@H](C=C(CO)[C@@H](O)[C@]12O)[C@H]1[C@@H](C[C@H]3C)C1(C)C [Compound 547, Ingenol 3-(5-ethyl-3-isopropyl-isoxazole-4-carboxylate)] | 0.02 to 0.1 µM | < 0.02 µM | < 150 µM |  |  |  |
| CC1=C[C@]23C(=O)[C@@H](C=C(CO)[C@@H](O)[C@]2(O)[C@H]1OC(=O)N(C)c1nc(C)cs1)[C@H]1[C@@H](C[C@H]3C)C1(C)C [Compound 752, Ingenol 3-(N-methyl-N-(4-methylthiazol-2-yl)-carbamate)] | < 0.02 µM | < 0.02 µM | 150 to 350 µM |  |  |  |
| CC1=C[C@]23C(=O)[C@@H](C=C(CO)[C@@H](O)[C@]2(O)[C@H]1OC(=O)c1c2ccccc2nn1C)[C@H]1[C@@H](C[C@H]3C)C1(C)C [Compound 548, Ingenol 3-(2-methylindazole-3-carboxylate)] | 0.02 to 0.1 µM | < 0.02 µM | 150 to 350 µM |  |  |  |
| C=CCn1cc(C)c(C(=O)O[C@H]2C(C)=C[C@]34C(=O)[C@@H](C=C(CO)[C@@H](O)[C@]23O)[C@H]2[C@@H](C[C@H]4C)C2(C)C)c1C [Compound 587, Ingenol 3-(1-allyl-2,4-dimethyl-pyrrole-3-carboxylate)] | < 0.02 µM | < 0.02 µM | < 150 µM |  |  |  |
